± gives the uncertainty stated by the source.
Experiment: xn = mol fraction of the nth substance listed

CCC(=O)[O-].CC[N+]1(C)CCOCC1 + O
viscosity [mPa·s], 100 kPa
Settings	x1 = 0.0672	x1 = 0.1305	x1 = 0.2131	x1 = 0.2851	x1 = 0.4005	x1 = 0.5397	x1 = 0.6231	x1 = 0.7436
298.15 K	4.98 ± 0.52	16.4 ± 1.7	50.3 ± 5.1	98.7 ± 10	318 ± 38	1237 ± 180	2366 ± 370	–
303.15 K	4.23 ± 0.43	13.2 ± 1.3	38.8 ± 3.9	74.6 ± 7.6	223 ± 25	796 ± 110	1660 ± 250	–
308.15 K	3.64 ± 0.37	11.2 ± 1.1	30.6 ± 3.1	57.2 ± 5.8	160 ± 17	530 ± 66	1149 ± 160	–
313.15 K	3.16 ± 0.32	9.32 ± 0.94	24.5 ± 2.5	44.6 ± 4.5	119 ± 12	366 ± 43	786 ± 100	2582 ± 410
318.15 K	2.76 ± 0.28	7.58 ± 0.76	20 ± 2	35.4 ± 3.6	89.3 ± 9.1	258 ± 29	543 ± 68	1792 ± 270
323.15 K	2.44 ± 0.25	6.46 ± 0.65	16.5 ± 1.7	28.7 ± 2.9	69.1 ± 7	187 ± 20	372 ± 44	1137 ± 160

OCC(O)C(O)CO (centres undefined) + O
viscosity [mPa·s], 101 kPa
Settings	293.15 K	298.15 K	303.15 K	308.15 K	313.15 K	318.15 K	323.15 K
x1 = 0.005	1.176 ± 0.011	1.05 ± 0.01	0.915 ± 0.009	0.79 ± 0.008	–	0.649 ± 0.006	0.62 ± 0.006
x1 = 0.01	–	1.152 ± 0.011	1.021 ± 0.01	0.912 ± 0.009	0.821 ± 0.008	0.744 ± 0.007	0.679 ± 0.007
x1 = 0.015	1.42 ± 0.013	1.25 ± 0.012	1.109 ± 0.01	0.968 ± 0.009	0.891 ± 0.009	0.808 ± 0.008	0.736 ± 0.007
x1 = 0.02	1.53 ± 0.014	1.327 ± 0.012	1.191 ± 0.011	1.053 ± 0.01	0.965 ± 0.009	0.86 ± 0.008	0.813 ± 0.008

CCCCNCCCC + CCO
viscosity [mPa·s], 101.33 kPa
Settings	x1 = 0.1169	x1 = 0.2094	x1 = 0.3171	x1 = 0.3921	x1 = 0.4922	x1 = 0.6159	x1 = 0.712	x1 = 0.7802	x1 = 0.8995
303.15 K	1.107 ± 0.014	1.126 ± 0.014	1.099 ± 0.014	1.065 ± 0.013	1.008 ± 0.013	0.9427 ± 0.012	0.8965 ± 0.011	0.8625 ± 0.011	0.8089 ± 0.01
313.15 K	0.9037 ± 0.012	0.9066 ± 0.012	0.8803 ± 0.011	0.8493 ± 0.011	0.8109 ± 0.011	0.766 ± 0.01	0.7426 ± 0.0098	0.7261 ± 0.0096	0.6965 ± 0.0093
